# Like-named read-outs stand apart in the source and are kept apart here.
# Legend:
# [1] = Determination of aqueous solubility (precipitate formation after 100-fold dilution of DMSO stock solutions); assay type: physicochemical; details: kinetic from dmso stock
# Method: Determination of Aqueous Solubility
# The compounds are dissolved in DMSO to give 10 mg/ml stock solutions. These stock solutions are divided over several plates. Several diluted concentrations are made with DMSO to 5, 2.5, 1.25, 0.625 and 0.3125 mg/ml, respectively. The stock solution and each derived concentration from this stock solution is taken and diluted 100 fold with water or with water containing a buffer. In every case this gives an aqueous solution which contains 1% DMSO (v/v) and 100, 50, 25, 12.5 and 6.25 and 3.125 μg compound/ml, respectively. The formation of a precipitate is determined in each plate. The measurements were performed at pH=7, applying a HEPES buffer and at pH=2, applying hydrochloric acid. Aqueous solubility is expressed in μg/ml in the table below.
# Aqueous solubilities of two of the compounds of general formula (I), the compounds 1 and 4, and the compound 1-(4-chlorophenyl)-2-(2,4-dichloro-phenyl)-N-cyclohexyl-1H-imidazole-4-carboxamide (compound 3 from WO 03/063781) were determined according to the procedure described above.
# [2] = molecular target: T1, human cannabinoid CB1 receptor (Homo sapiens, UniProt P21554); assay: In vitro affinity for cannabinoid-CB1 receptors ([3H]CP-55,940 radioligand, CHO cell membrane preparations); assay type: binding; details: CHO cell membranes, stably transfected human CB1, [3H]CP-55,940; read-out: Human cannabinoid-CB1 receptor In vitro affinity - pKi value (converted)
# T1 construct: expressed in transfected cells; host or cells: Chinese hamster ovary (CHO) cells, stably transfected; membrane preparations
# T1 sequence (P21554 whole entry): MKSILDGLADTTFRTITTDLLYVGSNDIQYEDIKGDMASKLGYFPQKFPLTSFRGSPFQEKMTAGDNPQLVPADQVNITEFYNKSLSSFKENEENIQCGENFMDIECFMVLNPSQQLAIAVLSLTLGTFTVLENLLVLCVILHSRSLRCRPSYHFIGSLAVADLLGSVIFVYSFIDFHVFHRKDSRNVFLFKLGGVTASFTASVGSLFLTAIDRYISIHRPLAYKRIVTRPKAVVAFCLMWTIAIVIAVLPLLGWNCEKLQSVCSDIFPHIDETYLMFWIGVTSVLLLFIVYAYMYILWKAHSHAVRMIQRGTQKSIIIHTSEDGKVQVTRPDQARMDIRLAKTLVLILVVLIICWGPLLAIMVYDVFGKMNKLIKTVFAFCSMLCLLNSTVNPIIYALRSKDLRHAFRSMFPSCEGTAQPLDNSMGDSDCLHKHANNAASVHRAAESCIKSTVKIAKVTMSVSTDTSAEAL
# Method: In Vitro Affinity for Cannabinoid-CB1 Receptors
# The affinity of the compounds of the invention for cannabinoid CB1 receptors can be determined using membrane preparations of Chinese hamster ovary (CHO) cells in which the human cannabinoid CB1 receptor is stably transfected in conjunction with [^3H]CP-55,940 as radioligand. After incubation of a freshly prepared cell membrane preparation with the [^3H]-ligand, with or without addition of compounds of the invention, separation of bound and free ligand is performed by filtration over glassfiber filters. Radioactivity on the filter is measured by liquid scintillation counting.
# Pharmacological test results of a subset of the compounds of the invention, obtained with the assay described above, are given in table 2 below: […]
melting point,Ki [2],SMILES,"solubility ([1]; pH 2, simulated gastric fluid)","solubility ([1]; pH 7, aqueous buffer)","solubility ([1]; aqueous buffer, pH = 7, HEPES buffer, 1% DMSO (v/v), read-out: Aqueous solubility in μg/ml at pH = 7)","solubility ([1]; simulated gastric fluid, pH = 2, hydrochloric acid, 1% DMSO (v/v), read-out: Aqueous solubility in μg/ml at pH = 2)"
135 to 136 °C,6.31 nM,"CCN(C)Cc1c(C(=O)NC2CCCCC2)nc(-c2ccc(Cl)cc2Cl)n1-c1ccc(Cl)cc1 [Compound 2, N-cyclohexyl-1-(4-chlorophenyl)-2-(2,4-dichlorophenyl)-5-(N-ethyl,N-methylaminomethyl)-1H-imidazole-4-carboxamide]",,,,
163 to 166 °C,100 nM,"CN(C)Cc1c(C(=O)NN2CCCCC2)nc(-c2ccc(Cl)cc2Cl)n1-c1ccc(Cl)cc1 [Compound 3, N-(piperidin-1-yl)-1-(4-chlorophenyl)-2-(2,4-dichlorophenyl)-5-(N,N-dimethylaminomethyl)-1H-imidazole-4-carboxamide]",,,,
,126 nM,"CCN(C)Cc1c(C(=O)NN2CCCCC2)nc(-c2ccc(Cl)cc2Cl)n1-c1ccc(Cl)cc1 [Compound 6, N-(piperidin-1-yl)-1-(4-chlorophenyl)-2-(2,4-dichlorophenyl)-5-(N-ethyl, N-methylaminomethyl)-1H-imidazole-4-carboxamide]",,,,

# More lines, now with the values behind:
SMILES,melting point,Ki [2],"solubility ([1]; pH 2, simulated gastric fluid)","solubility ([1]; pH 7, aqueous buffer)","solubility ([1]; aqueous buffer, pH = 7, HEPES buffer, 1% DMSO (v/v), read-out: Aqueous solubility in μg/ml at pH = 7)","solubility ([1]; simulated gastric fluid, pH = 2, hydrochloric acid, 1% DMSO (v/v), read-out: Aqueous solubility in μg/ml at pH = 2)"
"O=C(NC1CCCCC1)c1cn(-c2ccc(Cl)cc2)c(-c2ccc(Cl)cc2Cl)n1 [1-(4-chlorophenyl)-2-(2,4-dichloro-phenyl)-N-cyclohexyl-1H-imidazole-4-carboxamide, reference compound]",,,25 µg/mL,25 µg/mL,,
"O=C(NC1CCCCC1)c1nc(-c2ccc(Cl)cc2Cl)n(-c2ccc(Cl)cc2)c1CN1CCCC1 [Compound 1, N-cyclohexyl-1-(4-chlorophenyl)-2-(2,4-dichlorophenyl)-5-(pyrrolidin-1-ylmethyl)-1H-imidazole-4-carboxamide]",155 to 157 °C,7.94 nM,> 100 µg/mL,50 µg/mL,,
"CN(C)Cc1c(C(=O)NC2CCCCC2)nc(-c2ccc(Cl)cc2Cl)n1-c1ccc(Cl)cc1 [Compound 4, N-cyclohexyl-1-(4-chlorophenyl)-2-(2,4-dichlorophenyl)-5-(N,N-dimethylaminomethyl)-1H-imidazole-4-carboxamide]",,31.6 nM,,,50 µg/mL,> 100 µg/mL
